The molecules below were run on NSE-apoE4 primary neurons (assay: apoE fragmentation in NSE-apoE4 primary neurons (western blot)). Details: NSE-apoE4 primary neurons treated with compound changing Golgi pH or calcium levels.
Assay type: cell-based, mouse
Method: To confirm that PCSK1 and PCSK2 actually contribute to neuronal cleavage of apoE observed in NSE-apoE4 primary neurons, NSE-apoE4 primary neurons were treated with lentivirus encoding either PCSK1 shRNA or PCSK2 shRNA to decrease the endogenous PCSK1 or PCSK2 levels.
Activity of both PCSK1 and PCSK2 is pH and calcium dependent. The optimum pH for PCSK1 and PCSK2 was acidic (pH 6.0 for PCSK1, pH 5.0 for PCSK2). Their activities were enriched in Golgi/trans-Golgi in neurons, which have an acidic environment. Based on this knowledge, it was hypothesized that changing the Golgi pH or calcium levels in neurons would affect PCSK1/PCSK2 activity and further regulate apoE fragmentation. To test this idea, NSE-apoE4 primary neurons were treated with Bafilomycin A, a compound that can increase Golgi pH, or Thapsigargin/2-APB, which can affect the calcium concentration in different cellular compartments.
PCSK1/PCSK2 generated similar apoE fragmentation patterns in N2A-apoE4 cells compared to NSE-apoE4 primary neurons. To determine whether PCSK1/PCSK2-generated apoE fragments are the same as those generated endogenously, lysates from N2A-apoE4 cells overexpressing either PCSK1 or PCSK2, lysates from NSE-apoE4 primary neurons, and the mixture of these two lysates, were tested. ApoE fragmentation was detected by western blot.
With `C/C=C(/C)C(=O)O[C@H]1C(C)=C2[C@H]([C@@H]1OC(=O)CCCCCCC)[C@@](C)(OC(C)=O)C[C@H](OC(=O)CCC)[C@@]1(O)[C@H]2OC(=O)[C@@]1(C)O` [Thapsigargin] the “apoE fragmentation after compound treatment” value (shortened to “apoE fragmentation”) was “decrease of apoE fragmentation”. `CO/C1=C\C(C)=C\[C@@H](C)[C@@H](O)[C@@H](C)C/C(C)=C/C=C/[C@H](OC)[C@@H]([C@@H](C)[C@@H](O)[C@H](C)[C@@]2(O)C[C@@H](O)[C@H](C)[C@@H](C(C)C)O2)OC1=O` [Bafilomycin A] was tested, and the “apoE fragmentation” value was “decrease of apoE fragmentation”. In the case of `NCCOB(c1ccccc1)c1ccccc1` [2-APB], the “apoE fragmentation” value is reported as “decrease of apoE fragmentation”.

Reference: patent publication US9835633B1, “Compositions and methods for identifying agents for treating apoE-related diseases” (The J. David Gladstone Institutes, priority 2015, dated 2017)
